# Measured values reported in patent US6524810B2, “Method of making bioluminescent assay reagent based on non-viable E. coli” (Azur Environmental, priority 1998, dated 2003).
# Experiments:
# Format in all cases: cell-based
# [1] = test system: Zeocin treated recombinant bioluminescent E. coli HB101 assay reagent; test: ZnSO4 sensitivity assay, Zeocin treated assay reagent; conditions: for SENSITIVITY-EC50 VALUES, ZEOCIN TREATED: 15 minutes exposure to ZnSO4, % toxic effect on light output
# Description: (§1) 1. Bioluminescent genetically modified E. coil strain HB101 (E. coli HB101 made bioluminescent by transformation with a plasmid carrying the lux operon of vibrio fischeri constructed by the method of Shaw and Kado, as described in Biotechnology 4: 560-564) was grown in fermenter as a batch culture in low salt medium (LB(5 g/ml NaCl)+glycerol+MgSO4).
# (§2) 2. Two aliquots of the culture were removed from the fermenter into separate sterile shaker flasks at each of three different stages of growth i.e. at OD630 values of 0.038 (lag phase growth), 1.31 (mid-exponential phase growth) and 2.468 (stationary phase growth).
# 3. One aliquot of culture for each of the three growth stages was inactivated by contact with Zeocin™ (1 mg Zeocin™ added per 2.5×10^6 cells, i.e. the concentration of Zeocin™ per cell is kept constant) for 300 minutes and then processed into assay reagent by freeze drying and reconstitution, as described in part (B) of Example 1.
# (§3) 5. Samples of each of the three Zeocin™ treated and three control assay reagents were then evaluated for sensitivity to toxicant (ZnSO4) according to the following assay protocol:
# 1. ZnSO4 solutions were prepared in pure water at 30, 10, 3, 1, 0.3 and 0.1 ppm. Pure water was also used as a control.
# 2. Seven vials of each of the three Zeocin™ treated and each of the three control assay reagents (i.e. one for each of the six ZnSO4 solutions and one for the pure water control) were reconstituted using 0.5 ml of reconstitution solution (eg 0.2M sucrose) and then left to stand at room temperature for 15 minutes to allow the light output to stabilize. Base line (time zero) readings of light output were then measured for each of the reconstituted reagents.
# 3. 0.5 ml aliquots of each of the six ZnSO4 solutions and the pure water control were added to separate vials of reconstituted assay reagent. This was repeated for each of the different Zeocin™ treated and control assay reagents.
# (§4) 4. The vials were incubated at room temperature and light output readings were taken 5, 10, 15, 20, 25 and 30 minutes after addition of ZnSO4 solution.
# 5. The % toxic effect for each sample was calculated as follows: [formula]
# where: Co=light in control at time zero
# Ct=light in control at reading time
# So=light in sample at time zero
# (§5) St=light in sample at reading time
# [2] = test system: control (Zeocin untreated) recombinant bioluminescent E. coli HB101 assay reagent; test: ZnSO4 sensitivity assay, control assay reagent; conditions: 15 minutes exposure to ZnSO4, % toxic effect on light output
# Description: as §1, §2
# 4. An equal volume of water was added to the second aliquot of culture for each of the three growth stages and the cultures processed into assay reagent as described above.
# as §3
# 1. […]
# 2. […] Base line (time zero) readings of light output were then measured for each of the reconstituted reagents. […]
# as §4
# 5. The % toxic effect for each sample was calculated as follows: [formula] […]
# Ct=light in control at reading time […]
# as §5
# [3] = test system: recombinant bioluminescent E. coli strain HB101; test: Inactivation of bioluminescent E. coli: viable count time course; conditions: 1.5 mg/ml Zeocin; exponential growth phase culture
# Description: (§6) 1. Bioluminescent genetically modified E. coil strain HB101 (E. coli HB101 made bioluminescent by transformation with a plasmid carrying the lux operon of Vibrio fischeri constructed by the method of Shaw and Kado, as described in Biotechnology 4: 560-564) were grown from a frozen stock in 5 ml of low salt medium (LB (5 g/ml NaCl)+glycerol+MgSO4) for 24 hours.
# (§7) 2. 1 ml of the 5 ml culture was then used to inoculate 200 ml of low salt medium in a shaker flask and the resultant culture grown to an OD630 of 0.407 (exponential growth phase).
# (§8) 3. 50 ml of this culture was removed to a fresh sterile shaker flask (control cells).
# 4. Zeocin™ was added to the 150 ml of culture in the original shaker flash, to a final concentration of 1.5 mg/ml. […]
# 5. The time course of cell inactivation was monitored by removing samples from the culture at 5, 60, 120, 180, 240 and 300 minutes after the addition of Zeocin™ and taking measurements of both light output (measured using a Deltatox luminometer) and viable count (per ml, determined using the method given in Example 3 below) for each of the samples. […]
# 5. The number of bacterial colonies present for each of the three aliquots at each of the serial dilutions were counted and the values averaged. Viable count was calculated per ml of bacterial culture.
# [4] = test system: recombinant bioluminescent E. coli strain HB101; test: Light output of culture during Zeocin treatment (Deltatox luminometer); conditions: 1.5 mg/ml Zeocin; 5 to 300 minutes
# Description: as §6, §7, §8
# 4. Zeocin™ was added to the 150 ml of culture in the original shaker flash, to a final concentration of 1.5 mg/ml. At the same time, an equivalent volume of water was added to the 50 ml culture removed from the original flask (control cells).
# 5. The time course of cell inactivation was monitored by removing samples from the culture at 5, 60, 120, 180, 240 and 300 minutes after the addition of Zeocin™ and taking measurements of both light output (measured using a Deltatox luminometer) and viable count (per ml, determined using the method given in Example 3 below) for each of the samples. Samples of the control cells were removed at 5 and 300 minutes after the addition of water and measurements of light output and viable count taken as for the Zeocin™ treated cells.
# [5] = test system: recombinant bioluminescent E. coli strain HB101; test: Light output of reconstituted freeze dried assay reagent; conditions: cells exposed to 1.5 mg/ml Zeocin for 5 hours, reconstituted in 0.2M sucrose
# Description: Five hours after the addition of Zeocin™ or water the remaining bacterial cells in the Zeocin™ treated and control cultures were harvested by the centrifugation, washed (to remove traces of Zeocin™ from the Zeocin™ treated culture), re-centrifuged and resuspended in cryoprotectant to an OD630 of 0.25. 200 μl aliquots of the cells in cryoprotectant were dispensed into single shot vials, and freeze dried. Freeze dried samples of the Zeocin™ treated cells and control cells were reconstituted in 0.2M sucrose to form assay reagents and the light output of the assay reagents measured at various times after reconstitution.
SMILES,"SENSITIVITY-EC50 VALUES, ZEOCIN TREATED ([1]; Expotential phase assay reagent)","SENSITIVITY-EC50 VALUES, ZEOCIN TREATED ([1]; Lag Phase assay reagent)","SENSITIVITY-EC50 VALUES, ZEOCIN TREATED ([1]; Stationary phase assay reagent)","SENSITIVITY-EC50 VALUES, CONTROL CELLS ([2]; Lag Phase assay reagent)","SENSITIVITY-EC50 VALUES, CONTROL CELLS ([2]; Stationary phase assay reagent)",contact time for complete inactivation of the culture (viable count) [3],light output from the culture with Zeocin contact time [4],light output of reconstituted assay reagent versus control (Zeocin untreated) cells [5],"effect of Zeocin treatment on sensitivity of assay reagent to ZnSO4 ([1]; 1 mg Zeocin per 2.5×10^6 cells for 300 minutes, three growth stages, versus control reagents)"
O=S(=O)([O-])[O-].[Zn+2] [ZnSO4],0.446 ppm ZnSO4,1.445 ppm ZnSO4,0.426 ppm ZnSO4,1.580 ppm ZnSO4,0.457 ppm ZnSO4,–,–,–,–
"Cc1c(N)nc([C@H](CC(N)=O)NC[C@H](N)C(N)=O)nc1C(=O)N[C@H](C(=O)N[C@H](C)[C@@H](O)[C@H](C)C(=O)N[C@H](C(=O)NCCC1=N[C@@H](c2nc(C(=O)NCCCCN=C(N)N)cs2)CS1)[C@@H](C)O)[C@@H](O[C@@H]1O[C@@H](CO)[C@@H](O)[C@H](O)[C@@H]1O[C@H]1O[C@H](CO)[C@@H](O)[C@H](OC(N)=O)[C@@H]1O)c1cnc[nH]1 [Zeocin™, phleomycin D1]",–,–,–,–,–,3 h,decrease gradually,not significantly different,does not significantly affect
